Measured values reported in patent US7329518B2, “Enzyme for producing optically active pyridineethanol derivatives” (Kaneka Corporation, priority 1999, dated 2008).

What follows are molecules tested on FPDH (assay: Oxidation activity of FPDH against various compounds as substrates). Details: substrate 1 mM; 5-(1-(R)-hydroxyethyl)furo[2,3-c]pyridine = 100%; 0.25 mM NAD+, pH 8.0, 30° C.
Type: biochemical, Candida maris IFO 10003
Protocol: Further, FPDH was examined for oxidation activity against various compounds. The oxidation activity was measured by allowing the reaction to proceed at 30° C. for 3 minutes in 3.0 ml of a reaction mixture containing 1 mM substrate, 0.25 mM NAD^+, 0.3% (vol/vol) dimethyl sulfoxide and 0.05 ml of the enzyme solution in 100 mM phosphate buffer (pH 8.0) and measuring the increase in absorbance at the wavelength 340 nm. These conditions were employed as standard reaction conditions for oxidizing activity substrate measurement. The enzyme activity reducing 1 μmole of NAD^+ to NADH in one minute under these reaction conditions was defined as 1 unit. The data shown in Table 10 are relative activities with the oxidation activity against the substrate 5-(1-(R)-hydroxyethyl)furo[2,3-c]pyridine being taken as 100%.

| Molecule | Relative activity (oxidation activity) [%] |
| --- | --- |
| C[C@@H](O)c1ccccc1 [(R)-1-Phenylethanol] | 225 |
| CC(O)c1cccnc1 (stereo not drawn) [1-(3-Pyridyl)ethanol] | 110 |
| CC(C)O [Isopropanol] | 226 |
| CC(O)CCc1ccccc1 (stereo not drawn) [4-Phenyl-2-butanol] | 219 |
| C=CCC(C)O (stereo not drawn) [4-Penten-2-ol] | 172 |

Each molecule was assayed on FPDH (assay: Optimal temperature and optimal pH for the activity of FPDH). Details: pH varied 3.5 to 9.0; acetate, phosphate and Tris-hydrochloride buffer.
Type: biochemical, Candida maris IFO 10003
Protocol: Hereafter, the reducing activity was measured by allowing the reaction to proceed at 30° C. for 3 minutes in 3.0 ml of a reaction mixture containing 1 mM 5-acetylfuro[2,3-c]pyridine (substrate), 0.25 mM NADH, 0.3% (vol/vol) dimethyl sulfoxide and 0.05 ml of the enzyme solution in 100 mM phosphate buffer (pH 6.5) and measuring the decrease in absorbance at the wavelength 340 nm. These conditions were employed as standard reaction conditions for reducing activity measurement. The enzyme activity oxidizing 1 μmole of NADH to NAD^+ in one minute under these reaction conditions was defined as 1 unit.
Activity measurements were conducted under the standard reaction conditions for reducing activity measurement as described in Example 14 except that the temperature alone was varied from 20 to 80° C.
Activity measurements were conducted under the standard reaction conditions for reducing activity measurement as described in Example 14 while varying the pH within the range of 3.5 to 9.0 using acetate buffer, phosphate buffer and Tris-hydrochloride buffer as the buffer solution.

| Molecule | Optimal pH |
| --- | --- |
| FPDH: purified NADH-dependent enzyme from Candida maris IFO 10003 reducing 5-acetylfuro[2,3-c]pyridine to the (R)-alcohol; SEQ ID NO:1 (protein, listed as Candida maris) MSYNFANKVLIVTGGLSGIGLAVAKKFLQLGAKVTISDISATEKYNTVVGEFKTEGIDVKNVQYIQADASKEADNEKLISETLSAFGDLDYVCANAGIATFTQTTDISYDVWRKVTSINLDGVFMLDKLAAQYFLSKNKPGAIVNMGSIHSYVAAPGLSHYGAAKGGLKLLTQTMALEYAAKGIRVNSVNPGYIKTPLLDICPKEHMDYLITQHPIGRLGKPEEIASAVAFLCSDEATFINGISLLVDGGYTAR | 5.0-6.0 |
